In brackets after ≈: the same amount, converted by molar mass. Where two headings read alike, the source gives them in different places.
Experiments:
[1] = test system: Staphylococcus epidermidis ATCC 12228; assay: Antibacterial activity, agar dilution MIC; assay type: cell-based; settings: ATCC12228, read-out: MIC S. epidermidis
Description: (§1) Antibacterial activity of the synthesized compounds 3a–n were determined according to the agar dilution methods for Gram-positive bacteria strains (Staphylococcus aureus ATCC 6538 and Staphylococcus epidermidis ATCC 12228) and Gram-negative bacteria strains (Escherichia coli ATCC 8739 and Pseudomonas aeruginosa ATCC 9027).
(§2) Two Gram-positive bacteria strains (Staphylococcus aureus ATCC 6538 and Staphylococcus epidermidis ATCC 12228) and two Gram-negative bacteria strains (Escherichia coli ATCC 8739 and Pseudomonas aeruginosa ATCC 9027) were used for evaluation of the synthesized N-thioacylated ciprofloxacin derivatives 3a–n. All the strains were obtained from Iranian Microbial Collection (Pasteur Institute of Iran, Tehran, Iran). The antibacterial activity of the synthesized compounds was determined according to the agar dilution methods of the National Committee for Clinical Laboratory Standards[43].
(§3) Briefly, a series of twofold dilutions of test compounds 3a–n and ciprofloxacin, the standard antibiotic, were dissolved in 1 ml of DMSO. Each concentration was added to molten test agars that have been allowed to equilibrate in a water bath to 55 °C, to attain the concentrations ranging from 100 to 0.003 µg/ml. To compare the MIC values; the standard antibiotic, ciprofloxacin was also diluted in the same manner.
(§4) To prepare the inoculums suspensions, the bacteria were cultured on Muller-Hinton agar 12–16 h before the test. On the day of the experiment, a single colony of each bacteria was suspended Muller–Hinton broth to reach the turbidity of 0.5 McFarland standard (0.08–0.1 absorbance at 600 nm), which is approximately equivalent to 1.5 × 10^8 CFU/ml. The suspensions were then diluted at 1:10 in sterile saline to obtain a concentration of 1.5 × 10^7 CFU/ml. The plates were dot inoculated with 2 ul of each bacterial suspension and incubated at 37 °C overnight. The MIC was also defined as the lowest concentration of test compounds that completely prevents the growth of bacteria on agar plate following overnight incubation.

[2] = test system: Staphylococcus aureus ATCC 6538; assay: Antibacterial activity, agar dilution MIC; assay type: cell-based; settings: ATCC6538, read-out: MIC S. aureus
Description: as §1, §2, §3, §4

[3] = test system: Pseudomonas aeruginosa ATCC 9027; assay: Antibacterial activity, agar dilution MIC; assay type: cell-based; settings: ATCC9027, read-out: MIC P. aeruginosa
Description: as §1, §2, §3, §4

[4] = test system: Escherichia coli ATCC 8739; assay: Antibacterial activity, agar dilution MIC; assay type: cell-based; settings: ATCC8739
Description: as §1, §2, §3, §4

[5] = target: T1, jack bean urease (JBU; EC 3.5.1.5) (Canavalia ensiformis, UniProt P07374); assay: biochemical; settings: JB urease, mean ± SEM, at least three experiments
T1 construct: purchased Sigma-Aldrich
Description: All chemicals and jack bean urease (JBU; EC 3.5.1.5) were purchased from Sigma-Aldrich. The urease inhibitory activity of N-thioacylated ciprofloxacin derivatives 3a–n was determined by Berthelot colorimetric method. The ammonia (NH3) produced by the urease enzyme along with indicator solutions including hypochlorite (OCl^−) and phenol make a blue-colored indophenol complex and the absorbance was measured at 625 nm by a Synergy H1 Hybrid multimode microplate reader (BioTek, Winooski, VT, USA).
Assay completed in two steps, at the first step the enzyme cocktail for each compound consisted of 50 µl urease enzyme (3 mg/ml in phosphate buffer, pH 7.4), 100 µl of test compound at different concentrations (0–10 mg/ml, in phosphate buffer, pH 7.4) and 850 µl urea solution (30 mM, in phosphate buffer, pH 7.4). This mixture was incubated at 37 °C for 30 min.
For the second step, each 100 µl of the above mixture was added to 500 µl of indicator solutions A (0.5 g phenol and 25 mg sodium nitroprusside in 500 ml distilled water) and 500 µl of B (2.5 g sodium hydroxide and 4.2 ml sodium hypochlorite (5%) in 500 ml distilled water) and further incubated at 37 °C for 30 min. The absorbance of blue-colored indophenol of each cell is related to the percentage of enzyme inhibition using the following equation: I%=1-T/C×100.
In this equation, I (%) is assigned to the percent of enzyme inhibition. (T) is assigned to the absorbance of our test compounds and C is assigned to the negative control absorbance which is the absorbance of our cocktail without any inhibitor compound. Thiourea and hydroxyurea were used as the positive controls. The IC50 values of test compounds were calculated using GraphPad PRISM 8.0 software (GraphPad, San Diego, CA, USA).

[6] = IC50 urease inhibitory activity

T1 sequence (P07374 whole entry, looked up): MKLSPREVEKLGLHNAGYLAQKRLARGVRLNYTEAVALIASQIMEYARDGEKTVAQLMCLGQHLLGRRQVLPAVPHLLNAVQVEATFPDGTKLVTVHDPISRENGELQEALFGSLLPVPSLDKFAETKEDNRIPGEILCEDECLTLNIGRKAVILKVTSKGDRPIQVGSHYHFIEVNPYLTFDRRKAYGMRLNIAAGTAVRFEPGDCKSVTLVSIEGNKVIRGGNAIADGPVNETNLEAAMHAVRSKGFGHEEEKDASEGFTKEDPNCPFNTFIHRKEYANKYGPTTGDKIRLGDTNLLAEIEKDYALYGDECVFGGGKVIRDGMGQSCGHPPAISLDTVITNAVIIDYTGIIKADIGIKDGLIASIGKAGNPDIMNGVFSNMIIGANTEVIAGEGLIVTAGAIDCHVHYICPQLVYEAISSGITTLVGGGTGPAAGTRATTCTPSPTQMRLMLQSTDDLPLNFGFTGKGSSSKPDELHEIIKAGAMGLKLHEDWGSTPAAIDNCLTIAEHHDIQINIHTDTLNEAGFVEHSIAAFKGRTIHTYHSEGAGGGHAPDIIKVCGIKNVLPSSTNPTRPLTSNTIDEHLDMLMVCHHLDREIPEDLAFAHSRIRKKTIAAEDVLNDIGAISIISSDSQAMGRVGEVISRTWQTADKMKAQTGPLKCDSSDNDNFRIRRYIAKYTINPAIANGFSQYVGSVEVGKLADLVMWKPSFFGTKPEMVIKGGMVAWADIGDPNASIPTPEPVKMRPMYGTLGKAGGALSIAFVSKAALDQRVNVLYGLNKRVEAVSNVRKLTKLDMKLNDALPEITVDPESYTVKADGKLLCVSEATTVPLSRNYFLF

Compound | MIC [1] | MIC [2] | MIC [3] | MIC [4] | IC50 [5, 6] | melting point | IC50 ([5]; read-out: IC50 urease inhibitory activity)
O=C(O)c1cn(C2CC2)c2cc(N3CCNCC3)c(F)cc2c1=O [Ciprofloxacin] | 0.048 µg/mL (≈ 0.145 µM) | 0.024 µg/mL (≈ 0.0724 µM) | 0.048 µg/mL (≈ 0.145 µM) | < 0.003 µg/mL |  |  | 
O=C(O)c1cn(C2CC2)c2cc(N3CCN(C(=S)c4ccccc4)CC3)c(F)cc2c1=O [Compound 3a, 1-Cyclopropyl-6-fluoro-4-oxo-7-(4-(phenylcarbonothioyl)piperazin-1-yl)-1,4 dihydroquinoline-3-carboxylic acid] | 0.024 µg/mL (≈ 0.0532 µM) | 0.048 µg/mL (≈ 0.106 µM) | 6.25 µg/mL (≈ 13.8 µM) | 0.048 µg/mL (≈ 0.106 µM) | 10.61 ± 0.09 µM | > 250 °C | 
COc1cccc(C(=S)N2CCN(c3cc4c(cc3F)c(=O)c(C(=O)O)cn4C3CC3)CC2)c1 [Compound 3b, 1-Cyclopropyl-6-fluoro-7-(4-(3-methoxyphenylcarbonothioyl)piperazin-1-yl)-4-oxo-1,4-dihydroquinoline-3-carboxylic acid] | 0.024 µg/mL (≈ 0.0498 µM) | 0.048 µg/mL (≈ 0.0997 µM) | 3.12 µg/mL (≈ 6.49 µM) | 0.097 µg/mL (≈ 0.201 µM) | 17.02 ± 0.16 µM | > 250 °C | 
Cc1ccc(C(=S)N2CCN(c3cc4c(cc3F)c(=O)c(C(=O)O)cn4C3CC3)CC2)cc1 [Compound 3c, 1-Cyclopropyl-6-fluoro-7-(4-(4-methylphenylcarbonothioyl)piperazin-1-yl)-4-oxo-1,4-dihydroquinoline-3-carboxylic acid] | 0.024 µg/mL (≈ 0.0516 µM) | 0.048 µg/mL (≈ 0.103 µM) | 3.12 µg/mL (≈ 6.71 µM) | 0.097 µg/mL (≈ 0.208 µM) | 20.63 ± 0.19 µM | > 250 °C | 
O=C(O)c1cn(C2CC2)c2cc(N3CCN(C(=S)c4ccc(F)cc4)CC3)c(F)cc2c1=O [Compound 3d, 1-Cyclopropyl-6-fluoro-7-(4-(4-fluorophenylcarbonothioyl)piperazin-1-yl)-4-oxo-1,4-dihydroquinoline-3-carboxylic acid] | 0.048 µg/mL (≈ 0.102 µM) | 0.097 µg/mL (≈ 0.207 µM) | 0.781 µg/mL (≈ 1.66 µM) | 0.097 µg/mL (≈ 0.207 µM) | 2.94 ± 0.04 µM | > 250 °C | 
O=C(O)c1cn(C2CC2)c2cc(N3CCN(C(=S)c4ccc(Cl)cc4)CC3)c(F)cc2c1=O [Compound 3e, 7-(4-(4-Chlorophenylcarbonothioyl)piperazin-1-yl)-1-cyclopropyl-6-fluoro-4-oxo-1,4-dihydroquinoline-3-carboxylic acid] | 0.048 µg/mL (≈ 0.0988 µM) | 0.048 µg/mL (≈ 0.0988 µM) | 0.781 µg/mL (≈ 1.61 µM) | 0.024 µg/mL (≈ 0.0494 µM) | 6.55 ± 0.05 µM | > 250 °C | 
COc1ccc(C(=S)N2CCN(c3cc4c(cc3F)c(=O)c(C(=O)O)cn4C3CC3)CC2)cc1 [Compound 3f, 1-Cyclopropyl-6-fluoro-7-(4-(4-methoxyphenylcarbonothioyl)piperazin-1-yl)-4-oxo-1,4-dihydroquinoline-3-carboxylic acid] | 0.024 µg/mL (≈ 0.0498 µM) | 0.024 µg/mL (≈ 0.0498 µM) | 3.12 µg/mL (≈ 6.49 µM) | 0.097 µg/mL (≈ 0.201 µM) | 21.36 ± 0.08 µM | > 250 °C | 
O=C(O)c1cn(C2CC2)c2cc(N3CCN(C(=S)c4cccc([N+](=O)[O-])c4)CC3)c(F)cc2c1=O [Compound 3g, 1-Cyclopropyl-6-fluoro-7-(4-(3-nitrophenylcarbonothioyl)piperazin-1-yl)-4-oxo-1,4-dihydroquinoline-3-carboxylic acid] | 0.024 µg/mL (≈ 0.0483 µM) | 0.024 µg/mL (≈ 0.0483 µM) | 0.39 µg/mL (≈ 0.785 µM) | 0.012 µg/mL (≈ 0.0242 µM) | 5.87 ± 0.07 µM |  | 
O=C(O)c1cn(C2CC2)c2cc(N3CCN(C(=S)c4cccc(F)c4)CC3)c(F)cc2c1=O [Compound 3h, 1-Cyclopropyl-6-fluoro-7-(4-(3-fluorophenylcarbonothioyl)piperazin-1-yl)-4-oxo-1,4-dihydroquinoline-3-carboxylic acid] | 0.097 µg/mL (≈ 0.207 µM) | 0.048 µg/mL (≈ 0.102 µM) | 0.048 µg/mL (≈ 0.102 µM) | < 0.003 µg/mL | 4.08 ± 0.03 µM |  | 
O=C(O)c1cn(C2CC2)c2cc(N3CCN(C(=S)c4ccccc4F)CC3)c(F)cc2c1=O [Compound 3i, 1-Cyclopropyl-6-fluoro-7-(4-(2-fluorophenylcarbonothioyl)piperazin-1-yl)-4-oxo-1,4-dihydroquinoline-3-carboxylic acid] | 0.024 µg/mL (≈ 0.0511 µM) | 0.024 µg/mL (≈ 0.0511 µM) | 2.5 µg/mL (≈ 5.32 µM) | 0.0195 µg/mL (≈ 0.0415 µM) | 15 ± 0.16 µM | > 250 °C | 
O=C(O)c1cn(C2CC2)c2cc(N3CCN(C(=S)c4cccc(O)c4)CC3)c(F)cc2c1=O [Compound 3j, 1-Cyclopropyl-6-fluoro-7-(4-(3-hydroxyphenylcarbonothioyl)piperazin-1-yl)-4-oxo-1,4-dihydroquinoline-3-carboxylic acid] | 0.048 µg/mL (≈ 0.103 µM) | 0.097 µg/mL (≈ 0.207 µM) | 0.781 µg/mL (≈ 1.67 µM) | 0.024 µg/mL (≈ 0.0513 µM) | 19.6 ± 0.17 µM | > 250 °C | 
O=C(O)c1cn(C2CC2)c2cc(N3CCN(C(=S)c4cccc(Oc5ccccc5)c4)CC3)c(F)cc2c1=O [Compound 3k, 1-Cyclopropyl-6-fluoro-4-oxo-7-(4-(3-phenoxyphenylcarbonothioyl)piperazin-1-yl)-1,4-dihydroquinoline-3-carboxylic acid] | 0.39 µg/mL (≈ 0.717 µM) | 0.39 µg/mL (≈ 0.717 µM) | 3.12 µg/mL (≈ 5.75 µM) | 0.097 µg/mL (≈ 0.178 µM) | 32.49 ± 0.32 µM | > 250 °C | 
O=C(O)c1cn(C2CC2)c2cc(N3CCN(C(=S)c4ccc(Br)cc4)CC3)c(F)cc2c1=O [Compound 3l, 7-(4-(4-Bromophenylcarbonothioyl)piperazin-1-yl)-1-cyclopropyl-6-fluoro-4-oxo-1,4-dihydroquinoline-3-carboxylic acid] | 0.048 µg/mL (≈ 0.0905 µM) | 0.048 µg/mL (≈ 0.0905 µM) | 0.848 µg/mL (≈ 1.6 µM) | 0.028 µg/mL (≈ 0.0528 µM) | 8.21 ± 0.06 µM | > 250 °C | 
O=C(O)c1cn(C2CC2)c2cc(N3CCN(C(=S)c4cccc(Cl)c4)CC3)c(F)cc2c1=O [Compound 3m, 7-(4-(3-Chlorophenylcarbonothioyl)piperazin-1-yl)-1-cyclopropyl-6-fluoro-4-oxo-1,4-dihydroquinoline-3-carboxylic acid] | 0.097 µg/mL (≈ 0.2 µM) | 0.048 µg/mL (≈ 0.0988 µM) | 6.25 µg/mL (≈ 12.9 µM) | 0.048 µg/mL (≈ 0.0988 µM) | 12.2 ± 0.24 µM | > 250 °C | 
NC(=O)NO [Hydroxyurea, reference compound] |  |  |  |  |  |  | 100 ± 2.5 µM
